Consider 17 compounds from patent publication US11873309B2, “Heterocyclic compounds as immunomodulators” (Incyte Corporation, priority 2016, dated 2024).

SMILES strings stand for the structures. Some results are limits rather than exact numbers.

This assay deals with T1, PD-1/PD-L1 protein/protein interaction (recombinant human PD-L1 protein (19-238), recombinant human PD-1 protein (25-167)) (Homo sapiens, UniProt Q9NZQ7).
T1 construct: Recombinant human PD-L1 protein (19-238) with a His-tag at the C-terminus; purchased AcroBiosystems PD1-H5229 (PD-L1); PD1-H5257 (PD-1)
T1 sequence (Q9NZQ7 19-238): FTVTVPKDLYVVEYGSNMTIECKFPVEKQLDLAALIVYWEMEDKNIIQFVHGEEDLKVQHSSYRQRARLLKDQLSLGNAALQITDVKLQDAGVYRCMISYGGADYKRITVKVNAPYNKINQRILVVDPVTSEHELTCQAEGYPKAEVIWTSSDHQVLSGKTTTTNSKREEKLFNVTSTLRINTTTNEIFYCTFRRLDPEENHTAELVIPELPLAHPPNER
The assay is described as follows: PD-1/PD-L1 Homogeneous Time-Resolved Fluorescence (HTRF) Binding Assay. The following applies: 25° C., PBS buffer pH 7.4, 40 minutes preincubation with inhibitors. As for the experimental part: Example A. PD-1/PD-L1 Homogeneous Time-Resolved Fluorescence (HTRF) Binding Assay
The assays were conducted in a standard black 384-well polystyrene plate with a final volume of 20 μL. Inhibitors were first serially diluted in DMSO and then added to the plate wells before the addition of other reaction components. The final concentration of DMSO in the assay was 1%. The assays were carried out at 25° C. in the PBS buffer (pH 7.4) with 0.05% Tween-20 and 0.1% BSA. Recombinant human PD-L1 protein (19-238) with a His-tag at the C-terminus was purchased from AcroBiosystems (PD1-H5229). Recombinant human PD-1 protein (25-167) with Fc tag at the C-terminus was also purchased from AcroBiosystems (PD1-H5257). PD-L1 and PD-1 proteins were diluted in the assay buffer and 10 μL was added to the plate well. Plates were centrifuged and proteins were preincubated with inhibitors for 40 minutes. The incubation was followed by the addition of 10 μL of HTRF detection buffer supplemented with Europium cryptate-labeled anti-human IgG (PerkinElmer-AD0212) specific for Fc and anti-His antibody conjugated to SureLight®-Allophycocyanin (APC, PerkinElmer-AD0059H). After centrifugation, the plate was incubated at 25° C. for 60 min. before reading on a PHERAstar FS plate reader (665 nm/620 nm ratio). Final concentrations in the assay were […], 10 nM PD-L1, 1 nM europium anti-human IgG and 20 nM anti-His-Allophycocyanin. IC50 determination was performed by fitting the curve of percent control activity versus the log of the inhibitor concentration using the GraphPad Prism 5.0 software.
For the compound `Cc1c(NC(=O)c2nc3c(s2)CNCC3)cccc1-c1ccccc1` [Example 26, N-(2-methylbiphenyl-3-yl)-4,5,6,7-tetrahydro[1,3]thiazolo[5,4-c]pyridine-2-carboxamide], the IC50 (as a rule, the concentration that gives 50% inhibition) was no more than 100 nM.

`Cc1c(NC(=O)c2nc3c(s2)CN(CCO)CC3)cccc1-c1ccccc1` [Example 27, 5-(2-hydroxyethyl)-N-(2-methylbiphenyl-3-yl)-4,5,6,7-tetrahydrothiazolo[5,4-c]pyridine-2-carboxamide]: the half-inhibitory concentration (IC50) is no more than 100 nM. Under `Cc1c(NC(=O)c2nc3c(s2)CN(CC(=O)O)CC3)cccc1-c1ccccc1` [Example 28, 2-(2-(2-methylbiphenyl-3-ylcarbamoyl)-6,7-dihydrothiazolo[5,4-c]pyridin-5(4H)-yl)acetic acid] stands no more than 100 nM; under `Cc1c(NC(=O)c2nc3c(s2)CNCC3)cccc1-c1ccc2cn(C)nc2c1` [Example 29, N-[2-methyl-3-(2-methyl-2H-indazol-6-yl)phenyl]-4,5,6,7-tetrahydro[1,3]thiazolo[5,4-c]pyridine-2-carboxamide], 100 to 500 nM. With `Cc1c(NC(=O)c2nc3c(s2)CNCC3)cccc1-c1ccccc1C#N` [Example 30, N-(2′-cyano-2-methylbiphenyl-3-yl)-4,5,6,7-tetrahydro[1,3]thiazolo[5,4-c]pyridine-2-carboxamide] the figure was 100 to 500 nM.

Consider `Cc1c(NC(=O)c2nc3c(s2)CNCC3)cccc1-c1ccccc1CC#N` [Example 31, N-[2′-(cyanomethyl)-2-methylbiphenyl-3-yl]-4,5,6,7-tetrahydro[1,3]thiazolo[5,4-c]pyridine-2-carboxamide], for which the concentration for half-maximal inhibition (IC50) was 500 to 10000 nM. With `COc1cccc(-c2cccc(NC(=O)c3nc4c(s3)CNCC4)c2Cl)c1F` [Example 32, N-(2-chloro-2′-fluoro-3′-methoxybiphenyl-3-yl)-4,5,6,7-tetrahydro[1,3]thiazolo[5,4-c]pyridine-2-carboxamide] the figure was no more than 100 nM; with `O=C(Nc1cccc(-c2ccccc2)c1Cl)c1nc2c(s1)CNCC2` [Example 33, N-(2-chlorobiphenyl-3-yl)-4,5,6,7-tetrahydro[1,3]thiazolo[5,4-c]pyridine-2-carboxamide], no more than 100 nM; with `O=C(Nc1cccc(-c2ccc3c(c2)OCCO3)c1Cl)c1nc2c(s1)CNCC2` [Example 34, N-[2-chloro-3-(2,3-dihydro-1,4-benzodioxin-6-yl)phenyl]-4,5,6,7-tetrahydro[1,3]thiazolo[5,4-c]pyridine-2-carboxamide], no more than 100 nM. With `Cn1ncc2c(-c3cccc(NC(=O)c4nc5c(s4)CNCC5)c3Cl)cccc21` [Example 35, N-(2-chloro-3-(1-methyl-1H-indazol-4-yl)phenyl)-4,5,6,7-tetrahydrothiazolo[5,4-c]pyridine-2-carboxamide] the figure was no more than 100 nM; with `Cc1c(NC(=O)c2nc3c(s2)CNCC3)cc(F)cc1-c1ccc2c(c1)OCCO2` [Example 36, N-[3-(2,3-dihydro-1,4-benzodioxin-6-yl)-5-fluoro-2-methylphenyl]-4,5,6,7-tetrahydro[1,3]thiazolo[5,4-c]pyridine-2-carboxamide], no more than 100 nM; with `Cc1c(NC(=O)c2nc3c(s2)CNCC3)ccnc1-c1ccc2c(c1)OCCO2` [Example 37, N-[2-(2,3-dihydro-1,4-benzodioxin-6-yl)-3-methylpyridin-4-yl]-4,5,6,7-tetrahydro[1,3]thiazolo[5,4-c]pyridine-2-carboxamide], 500 to 10000 nM. `Cc1c(NC(=O)c2nc3c(s2)CNCC3)cncc1-c1ccc2c(c1)OCCO2` [Example 38, N-[5-(2,3-dihydro-1,4-benzodioxin-6-yl)-4-methylpyridin-3-yl]-4,5,6,7-tetrahydro[1,3]thiazolo[5,4-c]pyridine-2-carboxamide]: the IC50 is 500 to 10000 nM. In the case of `COc1cccc(-c2cccc(NC(=O)c3nc4c(n3C)CCNC4)c2C#N)c1F` [Example 39, N-(2-cyano-2′-fluoro-3′-methoxybiphenyl-3-yl)-1-methyl-4,5,6,7-tetrahydro-1H-imidazo[4,5-c]pyridine-2-carboxamide], the IC50 is no more than 100 nM.

Take `COc1cccc(-c2cccc(NC(=O)c3nc4c(n3C)CCN(CCO)C4)c2C#N)c1F` [Example 40, N-(2-cyano-2′-fluoro-3′-methoxybiphenyl-3-yl)-5-(2-hydroxyethyl)-1-methyl-4,5,6,7-tetrahydro-1H-imidazo[4,5-c]pyridine-2-carboxamide]: the IC50 was no more than 100 nM.

In the case of `COc1cccc(-c2cccc(NC(=O)c3nc4c(n3C)CCN(CC(=O)O)C4)c2C#N)c1F` [Example 41, (2-{[(2-cyano-2′-fluoro-3′-methoxybiphenyl-3-yl)amino]carbonyl}-1-methyl-1,4,6,7-tetrahydro-5H-imidazo[4,5-c]pyridin-5-yl)acetic acid], the IC50 lay in the range of 100 to 500 nM. `Cn1c(C(=O)Nc2cccc(-c3cccc4c3cnn4C)c2C#N)nc2c1CCNC2` [Example 42, N-(2-cyano-3-(1-methyl-1H-indazol-4-yl)phenyl)-1-methyl-4,5,6,7-tetrahydro-1H-imidazo[4,5-c]pyridine-2-carboxamide]: the IC50 was in the range of 100 to 500 nM.
